Patent US20260166021A1, “POLYMORPHIC FORMS OF A SOLUBLE EPOXIDE HYDROLASE INHIBITOR AND FORMULATIONS THEREOF” (EicOsis, LLC, priority 2022, published 2026)
Like-named read-outs stand apart in the source and are kept apart here.

Tests used:
[1] = Thermal gravimetric analysis (TGA); assay type: physicochemical; settings: below 150° C.
Experimental: Thermal gravimetric analyses were performed on each sample “as is.” Unless otherwise noted, samples were weighed in an alumina crucible and analyzed from 30-350° C. at 10° C./min.
Form C weight loss at 39° C.-50° C. likely reflected methanol loss.

[2] = Solubility screening of Formula (I) in crystallization solvents at RT and 50° C. (TABLE 3); assay type: physicochemical; settings: for solubility: thermodynamic from solid
Experimental: This example covers crystallization of Formula (I) in multiple solvent systems. Solvents were selected to span a range of polarities, functionalities, and classifications according to the International Conference on Harmonization (ICH) with preferences given to class II and class III solvents. […] After each addition of solvent, the vials were shaken and visually inspected for residual solids. If required, heating to 50° C. or heated to reflux (for low boiling point solvents) for approximately two minutes was performed to ensure complete dissolution. If residual solids remained, additional solvent aliquots were added. The solvent addition was discontinued when complete dissolution was achieved. […]

Question: For CC[C@H](C)C(=O)N1CCC(NC(=O)Nc2ccc(OC(F)(F)F)c(F)c2)CC1 [Form D, (S)-1-(3-fluoro-4-(trifluoromethoxy)phenyl)-3-(1-(2-methylbutanoyl)piperidin-4-yl)urea], which “TGA: wt change” value [1] is on record?
Answer: Its value is “No wt change below”.

Question: Which results are given for CC[C@H](C)C(=O)N1CCC(NC(=O)Nc2ccc(OC(F)(F)F)c(F)c2)CC1 [Formula (I), (S)-1-(3-fluoro-4-(trifluoromethoxy)phenyl)-3-(1-(2-methylbutanoyl)piperidin-4-yl)urea]?
Answer: Soluble? ([2]; 2-MeTHF, RT, Vol 0.2 mL): Yes; solubility ([2]; 2-butanone (MEK), organic solvent or mixture, MEK, RT, read-out: Nominal Solubility): 50.4 mg/mL; solubility ([2]; 2-butanone (MEK), organic solvent or mixture, MEK, RT, read-out: Solubility Range): ≥ 50.4 mg/mL; solubility ([2]; 2-methyltetrahydrofuran (2-MeTHF), organic solvent or mixture, 2-MeTHF, RT, read-out: Nominal Solubility): 25.2 mg/mL; solubility ([2]; 2-methyltetrahydrofuran (2-MeTHF), organic solvent or mixture, 2-MeTHF, RT, read-out: Solubility Range): 25.2 to 50.4 mg/mL; Soluble? ([2]; ACN, RT, Vol 0.1 mL): Yes; Soluble? ([2]; Acetone, RT, Vol 0.1 mL): Yes; Soluble? ([2]; DCM, RT, Vol 0.1 mL): Yes; solubility ([2]; DMF, organic solvent or mixture, DMF, RT, read-out: Nominal Solubility): 46.1 mg/mL; solubility ([2]; DMF, organic solvent or mixture, DMF, RT, read-out: Solubility Range): ≥ 46.1 mg/mL; Soluble? ([2]; DMF, RT, Vol 0.1 mL): Yes; solubility ([2]; DMSO, organic solvent or mixture, DMSO, RT, read-out: Nominal Solubility): 47.8 mg/mL; solubility ([2]; DMSO, organic solvent or mixture, DMSO, RT, read-out: Solubility Range): ≥ 47.8 mg/mL; Soluble? ([2]; DMSO, RT, Vol 0.1 mL): Yes; Soluble? ([2]; Dioxane, RT, Vol 0.5 mL): Yes; Soluble? ([2]; EtOAc, RT, Vol 0.1 mL): Yes; Soluble? ([2]; EtOH, RT, Vol 0.1 mL): Yes; Soluble? ([2]; IPA, RT, Vol 0.1 mL): Yes; Soluble? ([2]; IPAC, RT, Vol 0.2 mL): Yes; Soluble? ([2]; MEK, RT, Vol 0.1 mL): Yes; Soluble? ([2]; MIBK, RT, Vol 0.1 mL): Yes; Soluble? ([2]; MTBE, 50° C., Vol 1.0 mL): Yes; Soluble? ([2]; MeOH, RT, Vol 0.1 mL): Yes; solubility ([2]; NMP, organic solvent or mixture, NMP, RT, read-out: Nominal Solubility): 55.2 mg/mL; solubility ([2]; NMP, organic solvent or mixture, NMP, RT, read-out: Solubility Range): ≥ 55.2 mg/mL; Soluble? ([2]; NMP, RT, Vol 0.1 mL): Yes; Soluble? ([2]; THF, RT, Vol 0.1 mL): Yes; Soluble? ([2]; Toluene, 50° C., Vol 0.5 mL): Yes; Soluble? ([2]; Water, 50° C., Vol 4.0 mL): No; solubility ([2]; acetone, organic solvent or mixture, Acetone, RT, read-out: Nominal Solubility): 43.7 mg/mL; solubility ([2]; acetone, organic solvent or mixture, Acetone, RT, read-out: Solubility Range): ≥ 43.7 mg/mL; solubility ([2]; acetonitrile (ACN), organic solvent or mixture, ACN, RT, read-out: Nominal Solubility): 48.3 mg/mL; solubility ([2]; acetonitrile (ACN), organic solvent or mixture, ACN, RT, read-out: Solubility Range): ≥ 48.3 mg/mL; Soluble? ([2]; c-Hexane, 50° C., Vol 4.0 mL): No; solubility ([2]; c-hexane, 50 °C, organic solvent or mixture, c-Hexane, 50° C., read-out: Solubility Range): < 1.17 mg/mL; solubility ([2]; cyclohexane (c-hexane), 50 °C, organic solvent or mixture, c-Hexane, 50° C., read-out: Nominal Solubility): < 1.17 mg/mL; solubility ([2]; dichloromethane (DCM), organic solvent or mixture, DCM, RT, read-out: Nominal Solubility): 46.6 mg/mL; solubility ([2]; dichloromethane (DCM), organic solvent or mixture, DCM, RT, read-out: Solubility Range): ≥ 46.6 mg/mL; solubility ([2]; dioxane, organic solvent or mixture, Dioxane, RT, read-out: Nominal Solubility): 9.36 mg/mL; solubility ([2]; dioxane, organic solvent or mixture, Dioxane, RT, read-out: Solubility Range): 9.36 to 23.4 mg/mL; solubility ([2]; ethanol, organic solvent or mixture, EtOH, RT, read-out: Nominal Solubility): 41.2 mg/mL; solubility ([2]; ethanol, organic solvent or mixture, EtOH, RT, read-out: Solubility Range): ≥ 41.2 mg/mL; solubility ([2]; ethyl acetate (EtOAc), organic solvent or mixture, EtOAc, RT, read-out: Nominal Solubility): 54.3 mg/mL; solubility ([2]; ethyl acetate (EtOAc), organic solvent or mixture, EtOAc, RT, read-out: Solubility Range): ≥ 54.3 mg/mL; solubility ([2]; isopropanol (IPA), organic solvent or mixture, IPA, RT, read-out: Nominal Solubility): 56 mg/mL; solubility ([2]; isopropanol (IPA), organic solvent or mixture, IPA, RT, read-out: Solubility Range): ≥ 56 mg/mL; solubility ([2]; isopropyl acetate (IPAc), organic solvent or mixture, IPAC, RT, read-out: Nominal Solubility): 23.4 mg/mL; solubility ([2]; isopropyl acetate (IPAc), organic solvent or mixture, IPAC, RT, read-out: Solubility Range): 23.4 to 46.7 mg/mL; solubility ([2]; methanol, organic solvent or mixture, MeOH, RT, read-out: Nominal Solubility): 43.2 mg/mL; solubility ([2]; methanol, organic solvent or mixture, MeOH, RT, read-out: Solubility Range): ≥ 43.2 mg/mL; solubility ([2]; methyl isobutyl ketone (MIBK), organic solvent or mixture, MIBK, RT, read-out: Nominal Solubility): 48 mg/mL; solubility ([2]; methyl isobutyl ketone (MIBK), organic solvent or mixture, MIBK, RT, read-out: Solubility Range): ≥ 48 mg/mL; solubility ([2]; methyl tert-butyl ether (MTBE), 50 °C, organic solvent or mixture, MTBE, 50° C., read-out: Nominal Solubility): 5.68 mg/mL; solubility ([2]; methyl tert-butyl ether (MTBE), 50 °C, organic solvent or mixture, MTBE, 50° C., read-out: Solubility Range): 5.68 to 11.4 mg/mL; Soluble? ([2]; n-BuOH, RT, Vol 0.1 mL): Yes; Soluble? ([2]; n-Heptane, 50° C., Vol 4.0 mL): No; Soluble? ([2]; n-Propanol, RT, Vol 0.1 mL): Yes; solubility ([2]; n-butanol (n-BuOH), organic solvent or mixture, n-BuOH, RT, read-out: Nominal Solubility): 42.6 mg/mL; solubility ([2]; n-butanol (n-BuOH), organic solvent or mixture, n-BuOH, RT, read-out: Solubility Range): ≥ 42.6 mg/mL; solubility ([2]; n-heptane, 50 °C, organic solvent or mixture, n-Heptane, 50° C., read-out: Nominal Solubility): < 1.32 mg/mL; solubility ([2]; n-heptane, 50 °C, organic solvent or mixture, n-Heptane, 50° C., read-out: Solubility Range): < 1.32 mg/mL; solubility ([2]; n-propanol, organic solvent or mixture, n-Propanol, RT, read-out: Nominal Solubility): 52.2 mg/mL; solubility ([2]; n-propanol, organic solvent or mixture, n-Propanol, RT, read-out: Solubility Range): ≥ 52.2 mg/mL; solubility ([2]; tetrahydrofuran (THF), organic solvent or mixture, THF, RT, read-out: Nominal Solubility): 48 mg/mL; solubility ([2]; tetrahydrofuran (THF), organic solvent or mixture, THF, RT, read-out: Solubility Range): ≥ 48 mg/mL; solubility ([2]; toluene, 50 °C, organic solvent or mixture, Toluene, 50° C., read-out: Nominal Solubility): 10 mg/mL; solubility ([2]; toluene, 50 °C, organic solvent or mixture, Toluene, 50° C., read-out: Solubility Range): 10 to 25 mg/mL; solubility ([2]; water, 50 °C, water, Water, 50° C., read-out: Nominal Solubility): < 1.36 mg/mL; solubility ([2]; water, 50 °C, water, Water, 50° C., read-out: Solubility Range): < 1.36 mg/mL
